Assay results from patent US9656990B2, “Cathepsin cysteine protease inhibitors” (Merck Sharp & Dohme Corp., priority 2014, dated 2017).

How the values were obtained:
human cathepsin K = human cathepsin K (UniProt P43236, Y175D/V274L, species not given); assay: Cathepsin K Assay; format: biochemical; conditions: IP from dose response curve; Z-Leu-Arg-AMC substrate, pH 5.5; read-out: hrbCat K (IP (nM))
human cathepsin F = target: T1, human cathepsin F (Homo sapiens, UniProt Q9UBX1); assay: Cathepsin F Assay; format: biochemical; conditions: IP from dose response curve; Z-Phe-Arg-AMC substrate, pH 5.5; read-out: hCat F (IP (nM))
T1 sequence (Q9UBX1 271-484): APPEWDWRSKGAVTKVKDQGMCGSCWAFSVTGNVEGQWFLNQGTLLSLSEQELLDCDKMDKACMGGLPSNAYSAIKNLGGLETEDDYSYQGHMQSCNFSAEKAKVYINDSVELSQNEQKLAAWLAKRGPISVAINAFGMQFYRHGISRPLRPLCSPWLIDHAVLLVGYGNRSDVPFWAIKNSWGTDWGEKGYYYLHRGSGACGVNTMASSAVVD
Procedure: Serial dilutions (1/3) from 500 μM down to 0.025 μM of test compounds were prepared in dimethyl sulfoxide (DMSO). Then 0.5 μL of DMSO from each dilution were added to 18.75 μL of assay buffer (MES, 50 mM (pH 5.5); EDTA, 2.5 mM; DTT, 2.5 mM and 10% DMSO) containing human cathepsin F (10 nM) in assay buffer solution. The assay solutions were mixed for 5-10 seconds on a shaker plate and incubated for 15 minutes at room temperature. Z-Phe-Arg-AMC (8 μM) in 6.25 μL of assay buffer was added to the assay solutions. Hydrolysis of the coumarin leaving group (AMC) was followed by spectrofluorometry (Exλ=360 nm; Emλ=460 nm) for 20 minutes. Percent of inhibition were calculated by fitting experimental values to standard mathematical model for dose response curve.

Row | Compound | IC50 (human cathepsin K) | IC50 (human cathepsin F)
1 | N#CC1(NC(=O)[C@@H]2CC(F)(F)CC[C@H]2c2nn(-c3ccc(F)cc3)cc2-c2ccc(N3CCS(=O)(=O)CC3)cc2)CC1 [Example 83, (1R,2R)-N-(1-cyanocyclopropyl)-2-(4-(4-(1,1-dioxidothiomorpholino)phen-yl)-1-(4-fluorophenyl)-1H-pyrazol-3-yl)-5,5-difluorocyclohexanecarbox-amide] | 0.47 nM | 28 nM
2 | N#CC1(NC(=O)[C@@H]2CCCC[C@H]2c2nn(-c3ccc(F)cn3)cc2-c2ccc(N3CCS(=N)(=O)CC3)cc2)CC1 [Example 5, (1R,2R)—N-(1-Cyanocyclopropyl)-2-(1-(5-fluoropyridin-2-yl)-4-(4-(1-imino-1-oxidothiomorpholino)phenyl)-1H-pyrazol-3-yl)cyclohexanecarboxamide] | 1.53 nM | 877 nM
3 | N#CC1(NC(=O)[C@@H]2CC3CC3C[C@H]2c2nn(-c3ccc(F)cc3)cc2-c2ccc(N3CCS(=O)(=O)CC3)cc2)CC1 (single isomer, unassigned) [Example 3, (1S or 1R,3R,4R,6R or 6S)—N-(1-Cyanocyclopropyl)-4-(4-(4-(1,1-dioxidothiomorpholino)phenyl)-1-(4-fluorophenyl)-1H-pyrazol-3-yl)bicyclo[4.1.0]heptane-3-carboxamide] | 0.84 nM | 333 nM
4 | N#CC1(NC(=O)[C@@H]2CCCC[C@H]2c2nn(-c3ccc(OC(F)(F)F)cc3)cc2-c2ccc(N3CCS(=O)(=O)CC3)cc2)CC1 [Example 119, (1R,2R)-N-(1-cyanocyclopropyl)-2-(4-(4-(1,1-dioxidothiomorpholino)phen-yl)-1-(4-(trifluoromethoxy)phenyl)-1H-pyrazol-3-yl)cyclohexanecarboxamide] | 1.8 nM | 562 nM
5 | CC(C)[C@@H](C#N)NC(=O)[C@@H]1CC(F)(F)CC[C@H]1c1nn2ccccc2c1-c1ccc(N2CCS(=O)(=O)CC2)cc1 [Example 73, (1R,2R)-N-((S)-1-cyano-2-methylpropyl)-2-(3-(4-(1,1-dioxidothiomorpholino)phen-yl)pyrazolo[1,5-a]pyridin-2-yl)-5,5-difluorocyclohexanecarbox-amide] | 5.19 nM | 269 nM
6 | N#CC1(NC(=O)[C@@H]2CCCC[C@H]2c2nn(-c3ncc(F)cc3Cl)cc2-c2ccc(N3CCS(=O)(=O)CC3)cc2)CC1 [Example 147, (1R,2R)-2-(1-(3-chloro-5-fluoropyridin-2-yl)-4-(4-(1,1-dioxidothiomorpholino)phen-yl)-1H-pyrazol-3-yl)-N-(1-cyanocyclopropyl)cyclohex-anecarboxamide] | 3.26 nM | 1190 nM
7 | N#CCNC(=O)[C@H]1CC(F)(F)CC[C@@H]1c1nn(-c2ccc(F)cc2)cc1-c1ccc(N2CCS(=O)(=O)CC2)cc1 [Example 82, (1S,2S)-N-(cyanomethyl)-2-(4-(4-(1,1-dioxidothiomorpholino)phen-yl)-1-(4-fluorophenyl)-1H-pyrazol-3-yl)-5,5-difluorocyclohexanecarbox-amide] | 144 nM | 1400 nM
8 | Cc1cc(C#N)ccc1-n1cc(-c2ccc(N3CCS(=O)(=O)CC3)cc2)c([C@@H]2CCCC[C@H]2C(=O)NC2(C#N)CC2)n1 [Example 103, (1R,2R)-2-(1-(4-cyano-2-methylphenyl)-4-(4-(1,1-dioxidothiomorpholino)phen-yl)-1H-pyrazol-3-yl)-N-(1-cyanocyclopropyl)cyclohex-anecarboxamide] | 2.17 nM | 622 nM
9 | N#CC1(NC(=O)[C@@H]2CCCC[C@H]2c2nn(-c3ccc(F)cc3)cc2-c2ccc(N3CCS(=O)(=NCC(F)(F)F)CC3)cc2)CC1 [Example 141, (1R,2R)-N-(1-cyanocyclopropyl)-2-(1-(4-fluorophenyl)-4-(4-(1-oxido-1-((2,2,2-trifluoroethyl)imino)thio-morpholino)phenyl)-1H-pyrazol-3-yl)cyclohexanecarboxamide] | 2.1 nM | 816 nM
10 | N#CC1(NC(=O)[C@@H]2CCCC[C@H]2c2nn(-c3ccc(OC(F)F)cc3)cc2-c2ccc(N3CCS(=O)(=O)CC3)cc2)CC1 [Example 111, (1R,2R)-N-(1-cyanocyclopropyl)-2-(1-(4-(difluoromethoxy)phenyl)-4-(4-(1,1-dioxidothiomorpholino)phen-yl)-1H-pyrazol-3-yl)cyclohexanecarboxamide] | 0.86 nM | 392 nM
11 | N#CC1(F)CCN(c2ccc(-c3cn(-c4ccc(F)cc4)nc3[C@@H]3CCCC[C@H]3C(=O)NC3(C#N)CC3)cc2)CC1 [Example 115, (1R,2R)-2-(4-(4-(4-cyano-4-fluoropiperidin-1-yl)phenyl)-1-(4-fluorophenyl)-1H-pyrazol-3-yl)-N-(1-cyanocyclopropyl)cyclohex-anecarboxamide] | 6.62 nM | 804 nM
12 | N#CC(CC(F)(F)F)NC(=O)[C@@H]1CC(F)(F)CC[C@H]1c1nn2ccccc2c1-c1ccc(N2CCS(=O)(=O)CC2)cc1 (single isomer, unassigned) [Example 74, (1R,2R)-N-((S or R)-1-cyano-3,3,3-trifluoropropyl)-2-(3-(4-(1,1-dioxidothiomorpholino)phen-yl)pyrazolo[1,5-a]pyridin-2-yl)-5,5-difluorocyclohexanecarbox-amide] | 7.69 nM | 252 nM
13 | N#CC1(NC(=O)[C@@H]2CCCC[C@H]2c2nn(-c3ccc(F)cc3)cc2-c2ccc(C(=O)N3CCC(O)CC3)cc2)CC1 [Example 90, (1R,2R)-N-(1-cyanocyclopropyl)-2-(1-(4-fluorophenyl)-4-(4-(4-hydroxypiperidine-1-carbonyl)phenyl)-1H-pyrazol-3-yl)cyclohexanecarboxamide] | 8.01 nM | 1760 nM
14 | N#CC1(NC(=O)[C@@H]2CCCC[C@H]2c2nn(-c3ccc(F)cc3)cc2-c2ccc(N3CCS(=O)(=O)CC3)cc2)CC1 [Example 85, (1R,2R)-N-(1-cyanocyclopropyl)-2-(4-(4-(1,1-dioxidothiomorpholino)phen-yl)-1-(4-fluorophenyl)-1H-pyrazol-3-yl)cyclohexanecarboxamide] | 0.69 nM | 352 nM
15 | N#CC1(NC(=O)[C@@H]2CCCC[C@H]2c2nn(-c3ccc(F)cc3)cc2-c2ccc(C(=O)N3CCNC(=O)C3)cc2)CC1 [Example 89, (1R,2R)-N-(1-cyanocyclopropyl)-2-(1-(4-fluorophenyl)-4-(4-(3-oxopiperazine-1-carbonyl)phenyl)-1H-pyrazol-3-yl)cyclohexanecarboxamide] | 9.37 nM | 989 nM
16 | N#CC1(NC(=O)[C@@H]2CCCC[C@H]2c2nn(-c3cccc(Cl)c3)cc2-c2ccc(N3CCS(=O)(=O)CC3)cc2)CC1 [Example 99, (1R,2R)-2-(1-(3-chlorophenyl)-4-(4-(1,1-dioxidothiomorpholino)phen-yl)-1H-pyrazol-3-yl)-N-(1-cyanocyclopropyl)cyclohex-anecarboxamide] | 0.48 nM | 379 nM
17 | CC(C)(O)c1cccc(-n2cc(-c3ccc(N4CCS(=O)(=O)CC4)cc3)c([C@@H]3CCCC[C@H]3C(=O)NC3(C#N)CC3)n2)c1 [Example 96, (1R,2R)-N-(1-cyanocyclopropyl)-2-(4-(4-(1,1-dioxidothiomorpholino)phen-yl)-1-(3-(2-hydroxypropan-2-yl)phenyl)-1H-pyrazol-3-yl)cyclohexanecarboxamide] | 1.27 nM | 824 nM
18 | CC(C)[C@@H](C#N)NC(=O)[C@@H]1CCCC[C@H]1c1nn(-c2ccc(F)cc2)c(CO)c1-c1ccc(N2CCS(=O)(=O)CC2)cc1 [Example 65, (1R,2R)-N-((S)-1-cyano-2-methylpropyl)-2-(4-(4-(1,1-dioxidothiomorpholino)phen-yl)-1-(4-fluorophenyl)-5-(hydroxymethyl)-1H-pyrazol-3-yl)cyclohexanecarboxamide] | 11 nM | 868 nM
19 | N#CCNC(=O)C1CC(F)(F)CCC1c1nn(-c2ccc(F)cc2)cc1-c1ccc(N2CCS(=O)(=O)CC2)cc1 (racemic) [Example 79, (1R,2R and 1S,2S)-N-(cyanomethyl)-2-(4-(4-(1,1-dioxidothiomorpholino)phen-yl)-1-(4-fluorophenyl)-1H-pyrazol-3-yl)-5,5-difluorocyclohexanecarbox-amide] | 0.81 nM | 17 nM
20 | N#CC1(NC(=O)[C@@H]2CCCC[C@H]2c2nn(-c3ccc(F)cn3)c(CO)c2-c2ccc(N3CCS(=O)(=O)CC3)cc2)CC1 [Example 30, (1R,2R)-N-(1-cyanocyclopropyl)-2-(4-(4-(1,1-dioxidothiomorpholino)phen-yl)-1-(5-fluoropyridin-2-yl)-5-(hydroxymethyl)-1H-pyrazol-3-yl)cyclohexanecarboxamide] | 11 nM | 5870 nM
21 | N#CC1(NC(=O)[C@@H]2C[C@@H](F)CC[C@H]2c2nn(-c3ccc(F)cn3)cc2-c2ccc(N3CCS(=N)(=O)CC3)cc2)CC1 [Example 14, (1R,2R,5S)-N-(1-cyanocyclopropyl)-5-fluoro-2-(1-(5-fluoropyridin-2-yl)-4-(4-(1-imino-1-oxidothiomorpholino)phenyl)-1H-pyrazol-3-yl)cyclohexanecarboxamide] | 2 nM | 2020 nM
